Molecules are shown by their SMILES.

One experiment deals with T1, Langerin ECD (Homo sapiens, UniProt Q9UJ71).
T1 construct: The ECD of Langerin (residues 68–328) was overexpressed and purified as previously described; made in house
Briefly: SPR competition (inhibition) assay with trimeric Langerin ECD. Format: binding. The following applies: Biacore T200, CM3 chip with BSA-Manα1-3[Manα1-6]Man, Langerin ECD 20 μM, 25 mM Tris-HCl pH 8, 150 mM NaCl, 4 mM CaCl2, 0.05% P20, four parameter fit. The procedure: The ECD of Langerin (residues 68–328) was overexpressed and purified as previously described ([Thépaut et al., 2009]). The SPR competition experiments were performed on a Biacore T200 using a CM3 series S sensor chip. Control flow cell 1 was functionalized with bovine serum albumin (BSA), whereas flow cell 2 and 3 were treated with 60 μg/mL BSA-Man α1-3[Manα1-6]Man (Dextra) in 10 mM NaOAc pH4 (final densities 2.062 and 2.183 RU, respectively). All flow cells were blocked with ethanolamine. […] Langerin ECD (20 μM) was injected at 5 μL/min, with or without inhibitor at increasing concentrations. The data were analyzed in Biacore BIAevaluation software using four parameter equation, and the IC50 was determined.
For orientation: SPR reads the build-up and loss of mass on a sensor chip optically.

Another experiment deals with T2, Langerin S-ECD (Homo sapiens, UniProt Q9UJ71).
T2 construct: The ECD of Langerin (residues 68–328) was overexpressed and purified as previously described; made in house
T2 sequence (Q9UJ71 68-328): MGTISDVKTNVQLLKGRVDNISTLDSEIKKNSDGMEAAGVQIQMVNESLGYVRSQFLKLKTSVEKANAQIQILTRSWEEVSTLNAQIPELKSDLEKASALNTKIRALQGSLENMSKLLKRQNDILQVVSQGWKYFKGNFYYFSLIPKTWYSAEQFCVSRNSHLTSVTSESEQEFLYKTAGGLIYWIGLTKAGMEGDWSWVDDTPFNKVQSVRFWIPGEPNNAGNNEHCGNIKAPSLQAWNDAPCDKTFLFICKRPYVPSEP
Put plainly: SPR direct interaction assay on oriented Langerin S-ECD surface. The format is binding. The following applies: Langerin S-ECD captured via StreptagII on CM3 chip, flow 30 μL/min, same running buffer pH 8, 1:1 fit, apparent Kd, read-out: Kdapp. Here is the method: To determine the apparent Kd value, direct interaction experiments were executed on a T200 Biacore with a CM3 series S sensor chip. The Langerin ECD in this assay was functionalized with a […] on the N-terminus (Langerin S-ECD), for oriented capture on the sensor chip surface. The flow cells were functionalized with streptactin protein after EDC/NHS activation. Control flow cell 1 was functionalized with BSA, whereas another flow cell was functionalized with 100 μg/mL Langerin S-ECD via tag-specific capture and simultaneous amine coupling as previously described ([Porkolab et al., 2020]). An approximate density of about 2.609 RU was achieved on the chip surface. The compounds were injected in increasing concentrations with a flow rate of 30 μL/min in the previously mentioned running buffer. The data were analyzed in Biacore BIAevaluation software for direct interaction 1:1 calculation to determine the apparent Kd value.

T1 sequence (Q9UJ71 68-328): as above

`CC(=O)N[C@@H](CCCCn1cc(CO[C@H]2O[C@H](CO)[C@@H](O)[C@H](O)[C@@H]2O)nn1)C(=O)NCC(=O)N[C@@H](CCCCn1cc(CO[C@H]2O[C@H](CO)[C@@H](O)[C@H](O)[C@@H]2O)nn1)C(=O)NCC(=O)N[C@@H](CCCCN)C(N)=O` [Ligand A2] had an IC50 at Langerin ECD of 2420 ± 30 µM.

The molecule `CC(=O)N[C@@H](CCCCn1cc(CO[C@H]2O[C@H](CO)[C@@H](O)[C@H](O)[C@@H]2O[C@H]2O[C@H](CO)[C@@H](O)[C@H](O)[C@@H]2O)nn1)C(=O)NCC(=O)N[C@@H](CCCCN)C(N)=O` [Ligand B1] yielded an IC50 at Langerin ECD of 4140 µM. Same read-out and setting: the same measure for `CC(=O)N[C@@H](CCCCn1cc(CO[C@H]2O[C@H](CO)[C@@H](O)[C@H](O)[C@@H]2O[C@H]2O[C@H](CO)[C@@H](O)[C@H](O)[C@@H]2O)nn1)C(=O)NCC(=O)N[C@@H](CCCCn1cc(CO[C@H]2O[C@H](CO)[C@@H](O)[C@H](O)[C@@H]2O[C@H]2O[C@H](CO)[C@@H](O)[C@H](O)[C@@H]2O)nn1)C(=O)NCC(=O)N[C@@H](CCCCN)C(N)=O` [Ligand B2]: 181 ± 4 µM; for `CC(=O)N[C@@H](CCCCn1cc(CO[C@H]2O[C@H](CO)[C@@H](O)[C@H](O[C@H]3O[C@H](CO)[C@@H](O)[C@H](O)[C@@H]3O)[C@@H]2O)nn1)C(=O)NCC(=O)N[C@@H](CCCCn1cc(CO[C@H]2O[C@H](CO)[C@@H](O)[C@H](O[C@H]3O[C@H](CO)[C@@H](O)[C@H](O)[C@@H]3O)[C@@H]2O)nn1)C(=O)NCC(=O)N[C@@H](CCCCN)C(N)=O` [Ligand C2]: 1420 µM. Regarding `CC(=O)N[C@@H](CCCCn1cc(CO[C@H]2O[C@H](CO[C@H]3O[C@H](CO)[C@@H](O)[C@H](O)[C@@H]3O)[C@@H](O)[C@H](O)[C@@H]2O)nn1)C(=O)NCC(=O)N[C@@H](CCCCn1cc(CO[C@H]2O[C@H](CO[C@H]3O[C@H](CO)[C@@H](O)[C@H](O)[C@@H]3O)[C@@H](O)[C@H](O)[C@@H]2O)nn1)C(=O)NCC(=O)N[C@@H](CCCCN)C(N)=O` [Ligand D2], the Kd at Langerin S-ECD is 16 µM. On the same count and under the same terms, the same measure for `CC(=O)N[C@@H](CCCCn1cc(CO[C@H]2O[C@H](CO[C@H]3O[C@H](CO)[C@@H](O)[C@H](O)[C@@H]3O)[C@@H](O)[C@H](O[C@H]3O[C@H](CO)[C@@H](O)[C@H](O)[C@@H]3O)[C@@H]2O)nn1)C(=O)NCC(=O)N[C@@H](CCCCn1cc(CO[C@H]2O[C@H](CO[C@H]3O[C@H](CO)[C@@H](O)[C@H](O)[C@@H]3O)[C@@H](O)[C@H](O[C@H]3O[C@H](CO)[C@@H](O)[C@H](O)[C@@H]3O)[C@@H]2O)nn1)C(=O)NCC(=O)N[C@@H](CCCCN)C(N)=O` [Ligand E2]: 278 µM.

Broadly, the IC50 is the midpoint of a concentration-inhibition curve.

The values above are taken from publication PMC7371993, “Targeting of the C-Type Lectin Receptor Langerin Using Bifunctional Mannosylated Antigens” (Frontiers in Cell and Developmental Biology, 2020).
